Results as given in PMC11083148, “Structure–Activity Relationship Studies on Highly Functionalized Pyrazole Hydrazones and Amides as Antiproliferative and Antioxidant Agents” (International Journal of Molecular Sciences, 2024).

What was measured:
Format in all cases: cell-based
A549 = test: MTT assay, antiproliferative activity; settings: Homo sapiens, 48h, read-out: Mean Growth Percentage
Procedure, shortened: (§1)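 Cells plated 16 h, then exposed to compounds at 10 μM final for 48 h at 37 °C, 5% CO2. MTT added for 4 h, formazan dissolved in DMSO, absorbance read at 570 nm; values as percent of DMSO-only control, mean of three experiments in six replicates.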

Hep-G2 = test: MTT assay, antiproliferative activity; settings: Homo sapiens, HepG2, 48h
Procedure, shortened: as §1

MDA-MB231 = test: MTT assay, antiproliferative activity; settings: Homo sapiens, MDA-MB-231, 48h
Procedure, shortened: as §1

SK-BR3 = test: MTT assay, antiproliferative activity; settings: Homo sapiens, SK-BR-3, 48h
Procedure, shortened: as §1

GM-6114 = test: MTT assay, cytotoxicity on normal fibroblasts; settings: human, 48 h, 10 µM
Method: Pyrazole acylhydrazones 10–13 and amides 14–22 were tested by MTT assay to evaluate their antiproliferative and cytotoxicity properties against a panel of eight tumor cell lines and normal fibroblasts.
The following cell lines were used for MTT assays: SKOV-3 (ovarian adenocarcinoma, ATCC, Manassas, VA, USA); MCF-7 (breast adenocarcinoma, Biologic Bank and Cell Factory, IRCCS Policlinico San Martino, Genoa, Italy); Hep-G2 (hepatocellular carcinoma, ATCC, Manassas, VA, USA); SK-MEL28 (skin melanoma, Biologic Bank and Cell Factory, IRCCS Policlinico San Martino, Genoa, Italy), GM-6114 (embryonic human fibroblast, ATCC, Manassas, VA, USA); MDA-MB231 (breast adenocarcinoma, Biologic Bank and Cell Factory, IRCCS Policlinico San Martino, Genoa, Italy); HeLa (cervical adenocarcinoma, Biologic Bank and Cell Factory, IRCCS Policlinico San Martino, Genoa, Italy); SK-BR3 (breast andenocarcinoma, Biologic Bank and Cell Factory, IRCCS Policlinico San Martino, Genoa, Italy); A549 (lung carcinoma, Biologic Bank and Cell Factory, IRCCS Policlinico San Martino, Genoa, Italy); HUVEC (Human Umbilical Vein Endothelial Cells, ATCC, Manassas, VA, USA). All cell lines were grown in their medium with 10% FBS, 2 mM Glutamine, and 1% penstrep and incubated at 37 °C in 5% CO2 in a humidified environment. The cell lines were plated in 96-well plates at an adequate number to reach 80–90% confluence at the end of the assay. 16 h after cell plating, a 10 mM DMSO stock solution of the compounds was diluted in growth medium and added at a final working concentration of 10 μM. After 48h of incubation, a 2 mg/mL PBS solution of MTT (3-(4,5-dimethyl-2-thiazolyl)-2,5-diphenyl-2H-tetrazolium bromide) was added (30 μL/well). After 4h, the supernatant was removed, and the Formazan precipitates were dissolved in DMSO (100 μL/well). The 96-well plates were incubated for 20 min, and absorbance was measured at 570 nm using a plate reader. The results are expressed as a percentage ratio over control samples (100%) in which the cells were incubated with the same amount of DMSO but without compounds. Each value is the mean of three independent experiments run in six replicates.

CCRF-CEM = test: NCI screening, Leukemia; settings: 10 µM
Method: (§2) In addition, 11a and 17 (representative compounds of the acylhydrazone and amide series) were selected by the National Cancer Institute (NCI, Germantown, MD, USA) and tested at a fixed concentration of 10 µM against a panel of fifty-nine different cancer cell lines, including highly metastatic tumors (Table 2).

MOLT-4 = test: NCI screening, Leukemia; settings: MOLT-4, Leukemia; 10 µM
Method: as §2

RPMI-8226 = test: NCI screening, Leukemia; settings: RPMI-8226, Leukemia; 10 µM
Method: as §2

COLO 205 = test: NCI screening, Colon Cancer; settings: COLO 205, Colon Cancer; 10 µM
Method: as §2

HCC-2998 = test: NCI screening, Colon Cancer; settings: HCC-2998, Colon Cancer; 10 µM
Method: as §2

KM12 = test: NCI screening, Colon Cancer; settings: 10 µM
Method: as §2

SF-268 = test: NCI screening, CNS Cancer; settings: SF-268, CNS Cancer; 10 µM
Method: as §2

SF-295 = test: NCI screening, CNS Cancer; settings: SF-295, CNS Cancer; 10 µM
Method: as §2

SF-539 = test: NCI screening, CNS Cancer; settings: SF-539, CNS Cancer; 10 µM
Method: as §2

SNB-19 = test: NCI screening, CNS Cancer; settings: SNB-19, CNS Cancer; 10 µM
Method: as §2

SNB-75 = test: NCI screening, CNS Cancer; settings: SNB-75, CNS Cancer; 10 µM
Method: as §2

U251 = test: NCI screening, CNS Cancer; settings: 10 µM
Method: as §2

786-0 = test: NCI screening, Renal Cancer; settings: 786-0, Renal Cancer; 10 µM
Method: as §2

A498 = test: NCI screening, Renal Cancer; settings: 10 µM
Method: as §2

ACHN = test: NCI screening, Renal Cancer; settings: 10 µM
Method: as §2

CAKI-1 = test: NCI screening, Renal Cancer; settings: CAKI-1, Renal Cancer; 10 µM
Method: as §2

RXF 393 = test: NCI screening, Renal Cancer; settings: RXF 393, Renal Cancer; 10 µM
Method: as §2

SN12C = test: NCI screening, Renal Cancer; settings: 10 µM
Method: as §2

TK-10 = test: NCI screening, Renal Cancer; settings: TK-10, Renal Cancer; 10 µM
Method: as §2

UO-31 = test: NCI screening, Renal Cancer; settings: UO-31, Renal Cancer; 10 µM
Method: as §2

DU-145 = test: NCI screening, Prostate Cancer; settings: DU-145, Prostate Cancer; 10 µM
Method: as §2

PC-3 = test: NCI screening, Prostate Cancer; settings: PC-3, Prostate Cancer; 10 µM
Method: as §2

| Compound | activity at 10 µM (A549) | Mean growth percentage at 10 µM (Hep-G2) | Mean growth percentage at 10 µM (MDA-MB231) | Mean growth percentage at 10 µM (SK-BR3) | Mean Growth Percentage (GM-6114) | Growth Percentage (%) (CCRF-CEM) | Growth Percentage (%) (MOLT-4) | Growth Percentage (%) (RPMI-8226) | Growth Percentage (%) (COLO 205) | Growth Percentage (%) (HCC-2998) | Growth Percentage (%) (KM12) | Growth Percentage (%) (SF-268) | Growth Percentage (%) (SF-295) | Growth Percentage (%) (SF-539) | Growth Percentage (%) (SNB-19) | Growth Percentage (%) (SNB-75) | Growth Percentage (%) (U251) | Growth Percentage (%) (786-0) | Growth Percentage (%) (A498) | Growth Percentage (%) (ACHN) | also measured |
| --- | --- | --- | --- | --- | --- | --- | --- | --- | --- | --- | --- | --- | --- | --- | --- | --- | --- | --- | --- | --- | --- |
| COc1ccc(/C=N/NC(=O)c2c(N)nn(C)c2Nc2ccccc2)cc1 [11a, (E)-3-amino-N′-(4-methoxybenzylidene)-1-methyl-5-(phenylamino)-1H-pyrazole-4-carbohydrazide] | 60.8% | 75% | 72% | 57% | 69.81% | 38.45% | 49.41% | 61.65% | 35.82% | 59.18% | 27.82% | 58.65% | 98.52% | 40.20% | 36.78% | 35.14% | 33.33% | 57.97% | 33.08% | 49.99% | Growth Percentage (%) (CAKI-1): 39.84%; Growth Percentage (%) (RXF 393): 37.26%; Growth Percentage (%) (SN12C): 57.59%; Growth Percentage (%) (TK-10): 89.16%; Growth Percentage (%) (UO-31): 51.18%; Growth Percentage (%) (DU-145): 76.34%; Growth Percentage (%) (PC-3): 55.90% |
| CCOC(=O)c1c(NC(=O)C2CC2)nn(C)c1Nc1ccccc1 [compound 17, Ethyl 3-(cyclopropanecarboxamido)-1-methyl-5-(phenylamino)-1H-pyrazole-4-carboxylate] | 75.8% | 103% | 127% | 106% | 65.92% | 97.75% | 101.92% | 99.62% | 106.91% | 114.15% | 105.43% | 101.17% | 102.51% | 97.42% | 98.39% | 94.70% | 100.80% | 101.26% | 92.87% | 104.77% | Growth Percentage (%) (CAKI-1): 86.39%; Growth Percentage (%) (RXF 393): 101.07%; Growth Percentage (%) (SN12C): 104.27%; Growth Percentage (%) (TK-10): 107.78%; Growth Percentage (%) (UO-31): 87.45%; Growth Percentage (%) (DU-145): 104.67%; Growth Percentage (%) (PC-3): 95.84% |
